Assay results published in patent US20210238176A1, “PESTICIDALLY-ACTIVE BICYCLIC HETEROAROMATIC COMPOUNDS” (SYNGENTA CROP PROTECTION AG, priority 2018, published 2021).

Columns and labels:
Type in all cases: in vivo
[1] = tested on: neonicotinoid-resistant Myzus persicae; assay: Myzus persicae (neonicotinoid-resistant) mixed population, contact/feeding, pepper plants; conditions: 120 h, neonicotinoid-resistant strain on pepper plants, 5 days after treatment, read-out: control (mortality)
Description: Myzus persicae (Neonicotinoid-Resistant, Green Peach Aphid), Mixed Population, Contact/Feeding.
Pepper plants were infested with mixed aged neonicotinoid-resistant aphid population and were treated 1 day after infestation with diluted test solutions in a spray chamber. 5 days after treatment, samples were assessed for mortality.

[2] = tested on: Bemisia tabaci (Cotton White Fly); assay: Bemisia tabaci (cotton white fly) feeding/contact activity, cotton leaf discs; conditions: foliar, 144 h, application rate 200 ppm, adult white flies, 6 days after incubation
Description: Bemisia tabaci (Cotton White Fly): Feeding/Contact Activity
Cotton leaf discs were placed on agar in 24-well microtiter plates and sprayed with aqueous test solutions prepared from 10,000 ppm DMSO stock solutions. After drying the leaf discs were infested with adult white flies. The samples were checked for mortality 6 days after incubation.

[3] = tested on: Myzus persicae (Green Peach Aphid); assay: Myzus persicae (green peach aphid) feeding/contact activity, sunflower leaf discs; conditions: foliar, 144 h, application rate 200 ppm, aphid population of mixed ages, 6 days after infestation
Description: Myzus persicae (Green Peach Aphid): Feeding/Contact Activity
Sunflower leaf discs were placed onto agar in a 24-well microtiter plate and sprayed with aqueous test solutions prepared from 10,000 ppm DMSO stock solutions. After drying, the leaf discs were infested with an aphid population of mixed ages. The samples were assessed for mortality 6 days after infestation.

[4] = tested on: Myzus persicae (Green Peach Aphid); assay: Myzus persicae intrinsic activity, sucrose solution under Parafilm; conditions: 120 h, test rate 12 ppm, 5 days after infestation
Source text: Myzus persicae (Green Peach Aphid). Intrinsic Activity
Test compounds prepared from 10,000 ppm DMSO stock solutions were applied by pipette into 24-well microtiter plates and mixed with sucrose solution. The plates were closed with a stretched Parafilm. A plastic stencil with 24 holes was placed onto the plate and infested pea seedlings were placed directly on the Parafilm. The infested plate was closed with a gel blotting paper and another plastic stencil and then turned upside down. The samples were assessed for mortality 5 days after infestation.

[5] = tested on: neonicotinoid-resistant Bemisia tabaci; assay: Bemisia tabaci (metabolic neonicotinoid-resistant) adult, cotton leaf discs; conditions: foliar, 96 h, 4 days after infestation, read-out: control (% adult mortality)
Description: Bemisia tabaci (Neonicotinoid-Resistant, Cotton Whitefly-Metabolic Neonicotinoid-Resistant), Adult.
5 cm cotton leaf discs were placed upside down in petri dishes poured out with 11 mL 0.8% water agar and applied in a turntable spraying chamber. After drying of the spray deposits, leaf discs were infested with 10 adult neonicotinoid-resistant Bemisia tabaci. Dishes were covered with a fabric filter and sealed with a perforated plastic lid. Evaluation was made 4 days after infestation on % adult mortality.

[6] = tested on: neonicotinoid-resistant Myzus persicae; assay: Myzus persicae (neonicotinoid-resistant) mixed population, contact, pea seedlings; conditions: 120 h, neonicotinoid-resistant strain on pea seedlings, 5 days after treatment, read-out: control (mortality)
Description: Myzus persicae (Green Peach Aphid—Neonicotinoid-Resistant), Mixed Population, Contact
Pea seedlings infested with a mixed-aged neonicotinoid-resistant Myzus persicae population were treated with diluted test solutions in a spray chamber and checked for mortality 5 days after treatment.

[7] = tested on: Myzus persicae (Green Peach Aphid); assay: Myzus persicae systemic activity, pea seedling roots in test solution; conditions: 144 h, test rate 24 ppm, systemic via pea seedling roots, 6 days
Description: Myzus persicae (Green Peach Aphid). Systemic Activity
Roots of pea seedlings infested with an aphid population of mixed ages were placed directly into aqueous test solutions prepared from 10,000 ppm DMSO stock solutions. The samples were assessed for mortality 6 days after placing seedlings into test solutions.

[8] = tested on: Nilaparvata lugens (Brown Plant Hopper, metabolic neonicotinoid-resistant); assay: Nilaparvata lugens (metabolic neonicotinoid-resistant) larvicide, feeding/contact, rice plants; conditions: 168 h, N3 nymphs, neonicotinoid-resistant strain, 7 days after treatment, read-out: control (mortality and growth regulation)
Description: Nilaparvata lugens (Brown Plant Hopper—Metabolic Neonicotinoid-Resistant), Larvicide, Feeding/Contact
Rice plants were treated with the diluted test solutions in a spray chamber. After drying, the plants were infested with ˜20 N3 nymphs. 7 days after the treatment, samples were assessed for mortality and growth regulation.

CCn1cc(-n2c3cccn(Cc4ccc(Cl)nc4)c-3nc2=O)cn1 [Compound A63, 4-[(6-chloro-3-pyridyl)methyl]-1-(1-ethylpyrazol-4-yl)imidazo[4,5-b]pyridin-2-one]
≥ 80%: mortality at 200 ppm [1] | mortality at 200 ppm [2] | mortality at 200 ppm [3] | mortality at 12 ppm [4] | mortality at 200 ppm [5]

O=c1nc2n(Cc3ccc(Cl)nc3)cccc-2n1-c1cncc(F)c1 [Compound A26, 4-[(6-chloro-3-pyridyl)methyl]-1-(5-fluoro-3-pyridyl)imidazo[4,5-b]pyridin-2-one]
≥ 80%: mortality at 200 ppm [3] | mortality at 200 ppm [6] | mortality at 12 ppm [4] | mortality at 24 ppm [7]

Cc1ccc(-n2c3cccn(Cc4ccc(Cl)nc4)c-3nc2=O)cc1 [Compound A30, 4-[(6-chloro-3-pyridyl)methyl]-1-(p-tolyl)imidazo[4,5-b]pyridin-2-one]
≥ 80%: mortality at 200 ppm [3] | mortality at 200 ppm [6] | mortality at 12 ppm [4]

Cc1c(-n2c3cccn(Cc4ccc(Cl)nc4)c-3nc2=O)cnn1C [Compound A92, 4-[(6-chloro-3-pyridyl)methyl]-1-(1,5-dimethylpyrazol-4-yl)imidazo[4,5-b]pyridin-2-one]
≥ 80%: mortality at 200 ppm [1] | mortality at 200 ppm [2] | mortality at 200 ppm [3] | mortality at 12 ppm [4] | mortality at 24 ppm [7] | mortality at 200 ppm [8]

O=c1nc2n(Cc3ccc(Cl)nc3)cccc-2n1-c1cnn(C2CC2)c1 [Compound A93, 4-[(6-chloro-3-pyridyl)methyl]-1-(1-cyclopropylpyrazol-4-yl)imidazo[4,5-b]pyridin-2-one]
≥ 80%: mortality at 200 ppm [1] | mortality at 200 ppm [2] | mortality at 200 ppm [3] | mortality at 12 ppm [4] | mortality at 24 ppm [7] | mortality at 200 ppm [8]
